Non-standard residues stand in square brackets, D forms with d. No end group written: not given here.
Experiments:
HUVEC [1] = experiment: Test system for apoptotically active peptides: TSP-1-induced apoptosis of cultivated HUVEC, DAPI dyeing; type: cell-based, human
Procedure: For the purposes of the disclosure, the term “apoptotically active” will mean that the addition of the respective substance to the test system shown in Examples 5 and 6 generates either a positive or negative inhibition index. Particularly endothelial cells, preferably especially HUVEC, are to this end cultivated in a medium which includes 1 μg TSP-1 per ml. The percentage apoptosis values of such positive control will then serve, as shown in the examples, for the calculation of the inhibition index for those substances which are used as potential inhibitors together with the inductor TSP-1 in parallel tests.
(§1) Cultivation of HUVEC takes place in gelatin-coated culture vessels at 37° C., 5% CO2 and water vapor saturated atmosphere. The culture medium is exchanged every two to three days; in case of confluence, the cells are passaged at a cleavage rate of from 1:3 to 1:5. HUVEC grow strictly contact-inhibited and form unilaminar cell bed having the typical cobble-stone morphology. In case of confluence, the cultures reach cell densities of 4-9×10^4 cells/cm^2. For apoptosis examinations, HUVEC cultures of passages 1-4 are exclusively employed.
(§2) The culture supernatant of a Petri dish is sucked off, the cell bed is fixed on ice for 15 minutes with 1 ml formaldehyde solution, is washed twice with 2 ml PBS, is added 0.5 ml DAPI solution for 15 minutes, is washed with PBS and evaluated under the fluorescence microscope. A UV filter set and a 20× and a 40× objective are used. 500 to 1000 cells are selected at random and the cells having apoptotic nuclei are counted.
(§3) The apoptosis index is calculated in accordance with the following formula: Apoptosis index [%]=number of apoptotic cells/total cell number×100 Flow Cytometry: Solutions: • PBS • Medium • Ethanol (reagent-grade) ice-cooled (−20° C.) • DAPI buffer • DAPI stock solution • DAPI dye solution Procedure:
The culture supernatant is sucked off and the cells are trypsinized without washing them with PBS. The cell suspension is received in medium, is counted, is centrifuged at 800×g for 5 minutes, the sediment is re-suspended in 0.5 ml IF and is dripped into 1.5 ml ice-cold ethanol. The suspension is stored overnight at […]. After renewed centrifugation and re-suspending of the sediment in 2 ml PBS, there follows a half-hour incubation at 37° C., further centrifugation, re-suspending of the sediment in 5 ml DAPI solution, and counting in the flow cytometer at a counting rate of 50 to 300 events per second. […] Caused by the decreasing absolute DNS amount per cell, apoptotic cells appear in a sub-G1 peak [Darzynklewicz Z. et al., Cytometry, 13, 795-808 (1992); Zamai L. et al., Cytometry, 14, 891-897 (1993)].
The cells were cultivated as described in Example 1. The cells are seeded in the corresponding culture vessels (e.g. 24-hole plate/0.5 ml per cavity) and, having obtained complete confluence, are employed for the test. The cells are provided with new medium: • (a) fresh culture medium [Base rate of apoptosis], • (b) fresh medium with 1 μg/ml TSP-1 [Apoptosis-induced substance; control], • (c) medium (b)+peptide of SEQ ID NO 1, 1 mM • (d) medium (b)+peptide of SEQ ID NO 2, 1 mM • (e) medium (b)+peptide of SEQ ID NO 3, 1 mM • (f) medium (b)+peptide of SEQ ID NO 4, 1 mM • (g) medium (b)+peptide of SEQ ID NO 7, 1 mM • (h) medium (b)+peptide of SEQ ID NO 8, 1 mM • (i) medium (b)+peptide of SEQ ID NO 9, 1 mM • (j) medium (b)+peptide of SEQ ID NO 10, 1 mM • (k) medium (b)+peptide of SEQ ID NO 11, 1 mM • (l) medium (b)+peptide of SEQ ID NO 12, 1 mM • (m) medium (b)+peptide of SEQ ID NO 13, 1 mM • (n) medium (b)+peptide of SEQ ID NO 14, 1 mM • (o) medium (b)+peptide of SEQ ID NO 15, 1 mM • (p) medium (b)+peptide of SEQ ID NO 16, 1 mM • (q) medium (b)+peptide of SEQ ID NO 17, 1 mM • (r) medium (b)+peptide of SEQ ID NO 18, 1 mM • (s) medium (b)+peptide of SEQ ID NO 19, 1 mM […]

HUVEC [2] = experiment: Induction of apoptosis at HUVEC with TSP-1; type: cell-based, human; details: confluent HUVEC, fresh medium + TSP-1 1 μg/ml; fresh medium alone 0.9 ± 0.1
Procedure: as §1, §2, §3
The cells are cultivated as described in Example 1. Having obtained complete confluence, the cells are used for the test. […]

[3] = lengthened peptide sequences, TSP-1 + peptide, tests as in Example 5, control 8.73 ± 0.43
[4] = lengthened peptide sequences, TSP-1 + peptide, tests as in Example 5, positive = substance inhibited
[5] = 1 μg/ml TSP-1 + peptide 1 mM, 24 hours, positive = substance inhibited, negative = substance induced apoptosis
[6] = medium with 1 μg/ml TSP-1 + peptide 1 mM, 24 hours, mean ± SD of three independent experiments, control 3.28 ± 0.55

Substance | Apoptosis index [%] (HUVEC [1]; [3]) | Inhibition index [%] (HUVEC [1]; [4]) | Inhibition index [%] (HUVEC [1]; [5]) | Apoptosis index [%] (HUVEC [1]; [6]) | Apoptosis rate (%) after 24 h (HUVEC [2]) [%]
K-R-A-Y-V-V-M-W-K-K (KRAYVVMWLL) [SEQ ID NO 5] | 0.37 ± 0.22 | +95.8 ± 2.6% | – | – | –
K-R-E-Y-V-V-M-W-K-K (LREYVVMWKK) [SEQ ID NO 6] | 0.48 ± 0.22 | +94.5 ± 2.5% | – | – | –
M-V-V-Y-F-R (MVVYFR) [SEQ ID NO 12] | – | – | −34.1 ± 6.2% | 4.40 ± 0.53 | –
R-A-Y-V-V-A (RAYVVA) [SEQ ID NO 13] | – | – | −51.8 ± 6.0% | 4.98 ± 0.3 | –
R-A-Y-V-V-M (RAYVVM) [SEQ ID NO 1] | – | – | +75.3 ± 7.5% | 0.83 ± 0.24 | –
R-C-Y-V-V-M (RCYVVM) [SEQ ID NO 17] | – | – | −326.5 ± 3.6% | 13.97 ± 0.35 | –
R-D-Y-V-V-M (RDYVVM) [SEQ ID NO 11] | – | – | +37.3 ± 14.0% | 2.12 ± 0.47 | –
R-E-Y-V-V-M (REYVVM) [SEQ ID NO 4] | – | – | +69.0 ± 8.9% | 1.04 ± 0.30 | –
R-G-Y-V-V-M (RGYVVM) [SEQ ID NO 7] | – | – | +46.4 ± 11.1% | 1.83 ± 0.37 | –
R-L-Y-V-V-M (RLYVVM) [SEQ ID NO 14] | – | – | −95.4 ± 6.1% | 6.41 ± 0.63 | –
R-M-Y-V-V-M (RMYVVM) [SEQ ID NO 8] | – | – | +44.2 ± 11.6% | 1.84 ± 0.39 | –
R-N-Y-V-V-M (RNYVVM) [SEQ ID NO 10] | – | – | +39.5 ± 15.8% | 2.06 ± 0.53 | –
R-P-Y-V-V-M (RPYVVM) [SEQ ID NO 15] | – | – | −72.8 ± 6.4% | 5.67 ± 0.54 | –
R-S-Y-V-V-M (RSYVVM) [SEQ ID NO 16] | – | – | −108.4 ± 3.7% | 6.86 ± 0.37 | –
R-T-Y-V-V-M (RTYVVM) [SEQ ID NO 9] | – | – | +44.5 ± 9.8% | 1.86 ± 0.36 | –
R-W-Y-V-V-M (RWYVVM) [SEQ ID NO 2] | – | – | +61.9 ± 7.7% | 1.30 ± 0.26 | –
R-Y-Y-V-V-M (RYYVVM) [SEQ ID NO 3] | – | – | +74.7 ± 5.0% | 0.85 ± 0.17 | –
TSP-1: thrombospondin 1, apoptosis-inducing substance added at 1 μg/ml to HUVEC medium as inductor/control | – | – | – | – | 3.0 ± 0.4
m-v-v-y-a-r ([dM][dV][dV][dY][dA][dR]) [SEQ ID NO 19] | – | – | −247.1 ± 5.4% | 11.4 ± 0.63 | –
m-v-v-y-f-r ([dM][dV][dV][dY][dF][dR]) [SEQ ID NO 18] | – | – | −345.1 ± 5.1% | 14.6 ± 0.75 | –

— US9017693B2, “Apoptotically active peptides” (Cytotools AG, priority 2001, dated 2015)
